This experiment deals with T1, mouse EL (Mus musculus, UniProt Q9WVG5).
T1 construct: made in house; host or cells: Freestyle 293F cells (pcDNA-DEST40 vector)
T1 sequence (Q9WVG5 21-500): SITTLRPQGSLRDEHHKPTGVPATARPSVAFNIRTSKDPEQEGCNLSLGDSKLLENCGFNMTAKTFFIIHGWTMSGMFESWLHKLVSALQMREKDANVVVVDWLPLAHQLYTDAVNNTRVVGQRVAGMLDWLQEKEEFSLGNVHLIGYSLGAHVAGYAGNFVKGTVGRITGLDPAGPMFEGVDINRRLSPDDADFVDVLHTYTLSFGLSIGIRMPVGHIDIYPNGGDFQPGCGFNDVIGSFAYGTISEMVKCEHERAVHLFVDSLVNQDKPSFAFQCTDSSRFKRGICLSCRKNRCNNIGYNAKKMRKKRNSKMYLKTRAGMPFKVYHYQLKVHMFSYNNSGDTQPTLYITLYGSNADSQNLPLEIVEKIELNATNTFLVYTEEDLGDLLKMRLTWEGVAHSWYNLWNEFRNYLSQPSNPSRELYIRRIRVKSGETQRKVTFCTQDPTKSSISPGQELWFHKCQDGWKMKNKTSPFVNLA
As to the kind of experiment: Inhibition of mouse EL activity using phosphatidylinositol-HDL as a substrate (NEFA production). In kind it is biochemical. As to conditions: 37° C. for 2 hr, FIG. 5. The protocol:
Phosphatidylinositol (Avanti Polar Lipids Inc.) in chloroform was collected the necessary amount, which was completely evaporated the solvent to dryness under nitrogen. After addition of PBS, phosphatidylinositol-HDL induced phosphatidylinositol (2.5 mg/ml) into HDL (5 mg/ml) was prepared by mixing phosphatidylinositol vesicle prepared by sonication on ice with human HDL (Athens Research & Technology, Inc.) and incubating at 4° C. for 24 hr. The pcDNA-DEST40 (Invitrogen Corp.) cloned DNA encoding mouse EL was transfected into Freestyle 293F cells and the cells were cultured at 37° C. for 2 days in an atmosphere of 8% CO2. The cells were collected by centrifugation of the culture medium, suspended in Freestyle 293 Expression Medium (Invitrogen Corp.) containing 20 U/ml heparin and incubated at 37° C. for 45 min. After that, the supernatant obtained by removing the cells by centrifugation was used as mouse EL enzyme solution. […] After reaction at 37° C. for 2 hr, the amount of NEFA produced from substrate by EL was measured with NEFA C-test Wako (Wako Pure Chemical Industries, Ltd.) and the amount of NEFA (absorbance) was assumed an index of enzyme activity. The enzyme activity was calculated by subtracting the background value equivalent to the amount of endogenous NEFA without mouse EL enzyme solution from the value measured in enzyme reaction of EL (FIG. 4).

In the case of `CCCCCCCCCCC[C@@H](C[C@@H]1OC(=O)[C@H]1CCCCCC)OC(=O)[C@H](CC(C)C)NC=O` [orlistat], the “inhibitory activity against mouse EL (inhibition rate)” value is listed as “dose-dependent inhibition”.
